Experimental data: article PMC5218480 (PLoS ONE, 2017)

Tested on: MV-4-11 cells
Experiment: Gene expression microarray analysis (Affymetrix PrimeView) and GSEA
Type: cell-based, human
Parameters: RFU PODN (11730768_x_at) / Fold change /veh PODN (11730768_x_at) / RFU LINC00158 (11744669_a_at) / Fold change /veh LINC00158 (11744669_a_at) / RFU DUSP10 (11751237_a_at) / Fold change /veh DUSP10 (11751237_a_at) / RFU ID3 (11757404_x_at) / Fold change /veh ID3 (11757404_x_at) / RFU PLEKHG5 (11737974_s_at) / Fold change /veh PLEKHG5 (11737974_s_at) / RFU LRRC4B (11730491_at) / Fold change /veh LRRC4B (11730491_at) / RFU GIMAP4 (11747438_a_at) / Fold change /veh GIMAP4 (11747438_a_at) / RFU KRT8 (11758183_x_at) / Fold change /veh KRT8 (11758183_x_at) / RFU CNN1 (11734310_a_at) / Fold change /veh CNN1 (11734310_a_at) / RFU VPS37D (11726825_at) / Fold change /veh VPS37D (11726825_at) / RFU C10orf10 (11716522_x_at) / Fold change /veh C10orf10 (11716522_x_at) / RFU KIR2DL2 /// KIR2DL4 /// KIR2DL5A /// KIR2DL5B /// KIR2DS1 /// KIR2DS2 /// KIR2DS3 /// KIR2DS4 /// KIR3DL3 /// KIR3DL3 /// KIR3DS1 (11738374_at) / Fold change /veh KIR2DL2 /// KIR2DL4 /// KIR2DL5A /// KIR2DL5B /// KIR2DS1 /// KIR2DS2 /// KIR2DS3 /// KIR2DS4 /// KIR3DL3 /// KIR3DL3 /// KIR3DS1 (11738374_at) / RFU C1QL1 (11718748_at) / Fold change /veh C1QL1 (11718748_at) / RFU TMPRSS4 (11747572_a_at) / Fold change /veh TMPRSS4 (11747572_a_at) / RFU HAMP (11756126_x_at) / Fold change /veh HAMP (11756126_x_at) / RFU RNFT2 (11725882_a_at) / Fold change /veh RNFT2 (11725882_a_at) / RFU NR4A2 (11747474_a_at) / Fold change /veh NR4A2 (11747474_a_at) / RFU ABCC12 (11746883_a_at) / Fold change /veh ABCC12 (11746883_a_at) / RFU TMEM136 (11760407_x_at) / Fold change /veh TMEM136 (11760407_x_at) / RFU CLDN22 /// WWC2 (11732394_at) / Fold change /veh CLDN22 /// WWC2 (11732394_at) / RFU HLA-DPB1 (11760878_x_at) / Fold change /veh HLA-DPB1 (11760878_x_at) / RFU SPINT1 (11716480_a_at) / Fold change /veh SPINT1 (11716480_a_at) / RFU GAP43 (11754022_s_at) / Fold change /veh GAP43 (11754022_s_at) / RFU A4GNT (11735810_at) / Fold change /veh A4GNT (11735810_at) / RFU PRB3 (11715151_x_at) / Fold change /veh PRB3 (11715151_x_at) / RFU TUBB4B (11761932_at) / Fold change /veh TUBB4B (11761932_at) / RFU CAPN14 (11732068_a_at) / Fold change /veh CAPN14 (11732068_a_at) / RFU TMCC2 (11721928_a_at) / Fold change /veh TMCC2 (11721928_a_at) / RFU IRGQ (11745062_a_at) / Fold change /veh IRGQ (11745062_a_at) / RFU FAM174B (11720279_a_at) / Fold change /veh FAM174B (11720279_a_at) / RFU TMPRSS4 (11748680_a_at) / Fold change /veh TMPRSS4 (11748680_a_at) / RFU FAM212B (11763350_a_at) / Fold change /veh FAM212B (11763350_a_at) / RFU PLEKHG5 (11743358_a_at) / Fold change /veh PLEKHG5 (11743358_a_at) / RFU ZSCAN30 (11745921_a_at) / Fold change /veh ZSCAN30 (11745921_a_at) / RFU CMKLR1 (11741424_a_at) / Fold change /veh CMKLR1 (11741424_a_at) / RFU LOC101060620 /// MAPK8IP1 (11723275_at) / Fold change /veh LOC101060620 /// MAPK8IP1 (11723275_at) / RFU SPTSSB (11747773_x_at) / Fold change /veh SPTSSB (11747773_x_at) / RFU PRSS12 (11739890_at) / Fold change /veh PRSS12 (11739890_at) / RFU BIN1 (11741810_x_at) / Fold change /veh BIN1 (11741810_x_at) / RFU WNT11 (11732464_a_at) / Fold change /veh WNT11 (11732464_a_at) / RFU C10orf10 (11716521_a_at) / Fold change /veh C10orf10 (11716521_a_at) / RFU C5orf56 (11738089_at) / Fold change /veh C5orf56 (11738089_at) / RFU CYB561 (11721691_x_at) / Fold change /veh CYB561 (11721691_x_at) / RFU ANKRD19P (11752326_a_at) / Fold change /veh ANKRD19P (11752326_a_at) / RFU OR2T12 /// OR2T33 /// OR2T8 (11738714_s_at) / Fold change /veh OR2T12 /// OR2T33 /// OR2T8 (11738714_s_at) / RFU VCAN (11748164_a_at) / Fold change /veh VCAN (11748164_a_at) / RFU JSRP1 (11732532_at) / Fold change /veh JSRP1 (11732532_at) / RFU KRTAP10-11 (11738290_x_at) / Fold change /veh KRTAP10-11 (11738290_x_at) / RFU MYO3A (11730013_a_at) / Fold change /veh MYO3A (11730013_a_at) / RFU EBF3 (11725865_a_at) / Fold change /veh EBF3 (11725865_a_at) / RFU CAMK2N1 (11719241_x_at) / Fold change /veh CAMK2N1 (11719241_x_at) / RFU C5orf56 (11738088_a_at) / Fold change /veh C5orf56 (11738088_a_at) / RFU OLFML3 (11715873_a_at) / Fold change /veh OLFML3 (11715873_a_at) / RFU LOC100653217 /// NTM (11731650_a_at) / Fold change /veh LOC100653217 /// NTM (11731650_a_at) / RFU MAPK11 (11762145_a_at) / Fold change /veh MAPK11 (11762145_a_at) / RFU FIZ1 (11724087_x_at) / Fold change /veh FIZ1 (11724087_x_at) / RFU OASL (11726364_x_at) / Fold change /veh OASL (11726364_x_at) / RFU SOX15 (11748057_x_at) / Fold change /veh SOX15 (11748057_x_at) / RFU CD79A (11719716_a_at) / Fold change /veh CD79A (11719716_a_at) / RFU HIST1H1D (11736915_at) / Fold change /veh HIST1H1D (11736915_at) / RFU CASKIN2 (11723855_a_at) / Fold change /veh CASKIN2 (11723855_a_at) / RFU LOC730098 (11760151_x_at) / Fold change /veh LOC730098 (11760151_x_at) / RFU OR4N2 (11742367_at) / Fold change /veh OR4N2 (11742367_at) / RFU PRRT2 (11749266_a_at) / Fold change /veh PRRT2 (11749266_a_at) / RFU SNX32 (11753110_a_at) / Fold change /veh SNX32 (11753110_a_at) / RFU CDHR5 (11726645_a_at) / Fold change /veh CDHR5 (11726645_a_at) / RFU RCAN1 (11760418_a_at) / Fold change /veh RCAN1 (11760418_a_at) / RFU FAM167A (11723789_a_at) / Fold change /veh FAM167A (11723789_a_at) / RFU FAM26E (11764081_at) / Fold change /veh FAM26E (11764081_at) / RFU ISYNA1 (11749810_s_at) / Fold change /veh ISYNA1 (11749810_s_at) / RFU ACY1 (11761880_at) / Fold change /veh ACY1 (11761880_at) / RFU 11764098_at / Fold change /veh 11764098_at / RFU SAMD14 (11745864_x_at) / Fold change /veh SAMD14 (11745864_x_at) / RFU NPB (11741838_a_at) / Fold change /veh NPB (11741838_a_at) / RFU TMPRSS6 (11731388_a_at) / Fold change /veh TMPRSS6 (11731388_a_at) / RFU KRTAP10-2 (11738614_at) / Fold change /veh KRTAP10-2 (11738614_at) / RFU ARHGAP8 /// PRR5-ARHGAP8 (11727945_x_at) / Fold change /veh ARHGAP8 /// PRR5-ARHGAP8 (11727945_x_at) / RFU KRTAP5-7 /// NADSYN1 (11734609_at) / Fold change /veh KRTAP5-7 /// NADSYN1 (11734609_at) / RFU RASL12 (11751679_a_at) / Fold change /veh RASL12 (11751679_a_at) / RFU CDKN2B (11736163_a_at) / Fold change /veh CDKN2B (11736163_a_at) / RFU PRF1 (11729649_at) / Fold change /veh PRF1 (11729649_at) / RFU, ZNF638 /// ZNF638-IT1 / Fold change vs veh, ZNF638 /// ZNF638-IT1 / RFU, PANK3 / Fold change vs veh, PANK3 / RFU, SH3YL1 / Fold change vs veh, SH3YL1 / RFU, ZEB2 / Fold change vs veh, ZEB2 / RFU, NRIP1 / Fold change vs veh, NRIP1 / RFU, PTTG1IP / Fold change vs veh, PTTG1IP / RFU, CAPN2 / Fold change vs veh, CAPN2 / RFU, MED14 / Fold change vs veh, MED14 / RFU, SNORA58 / Fold change vs veh, SNORA58 / RFU, C1orf63 / Fold change vs veh, C1orf63 / RFU, LRRFIP1 / Fold change vs veh, LRRFIP1 / RFU, NDUFAF7 / Fold change vs veh, NDUFAF7 / RFU, SLC12A2 / Fold change vs veh, SLC12A2 / RFU, IBTK / Fold change vs veh, IBTK / RFU, ESF1 / Fold change vs veh, ESF1 / Fold change vs veh, TMEM50B / RFU, TAOK1 / Fold change vs veh, TAOK1 / RFU, ACBD3 / Fold change vs veh, ACBD3 / RFU, TMA16 / Fold change vs veh, TMA16 / RFU, RWDD3 / Fold change vs veh, RWDD3 / RFU, BCAT1 / Fold change vs veh, BCAT1 / RFU, EDEM3 / Fold change vs veh, EDEM3 / RFU, TMEM33 / Fold change vs veh, TMEM33 / RFU, WDR75 / Fold change vs veh, WDR75 / RFU, AHCTF1 / Fold change vs veh, AHCTF1 / RFU, TFRC / Fold change vs veh, TFRC / RFU, ZDHHC17 / Fold change vs veh, ZDHHC17 / RFU, NOM1 / Fold change vs veh, NOM1 / RFU, ARL8B / Fold change vs veh, ARL8B / RFU, ZBTB11 / Fold change vs veh, ZBTB11 / RFU, TAMM41 / Fold change vs veh, TAMM41 / RFU, KIAA1704 /// LOC100996395 / Fold change vs veh, KIAA1704 /// LOC100996395 / RFU, ING1 / Fold change vs veh, ING1 / RFU, TRMT61B / Fold change vs veh, TRMT61B / RFU, FUBP3 / Fold change vs veh, FUBP3 / RFU, TP53 / Fold change vs veh, TP53 / RFU, TNKS2 / Fold change vs veh, TNKS2 / RFU, ZFP14 / Fold change vs veh, ZFP14 / RFU, ACTR2 / Fold change vs veh, ACTR2 / RFU, PPP3R1 / Fold change vs veh, PPP3R1 / RFU, PIK3R1 / Fold change vs veh, PIK3R1 / RFU, HNRNPA1 / Fold change vs veh, HNRNPA1 / RFU, RNF170 / Fold change vs veh, RNF170 / RFU, ZNF28 / Fold change vs veh, ZNF28 / RFU, RNGTT / Fold change vs veh, RNGTT / RFU, OGT / Fold change vs veh, OGT / RFU, BRD1 / Fold change vs veh, BRD1 / RFU, MARS / Fold change vs veh, MARS / RFU, ZNF655 / Fold change vs veh, ZNF655 / RFU, FAHD1 / Fold change vs veh, FAHD1 / RFU, BDP1 / Fold change vs veh, BDP1 / RFU, LRRCC1 / Fold change vs veh, LRRCC1 / RFU, ARID1A / Fold change vs veh, ARID1A / RFU, ZNF146 / Fold change vs veh, ZNF146 / RFU, ZNF330 / Fold change vs veh, ZNF330 / RFU, GPN3 / Fold change vs veh, GPN3 / RFU, C9orf123 / Fold change vs veh, C9orf123 / RFU, N4BP2L2 / Fold change vs veh, N4BP2L2 / RFU, ARFIP1 / Fold change vs veh, ARFIP1 / RFU, FAM179B / Fold change vs veh, FAM179B / RFU, BCL10 / Fold change vs veh, BCL10 / RFU, UHRF1BP1L / Fold change vs veh, UHRF1BP1L / RFU, BET1 / Fold change vs veh, BET1 / RFU, CNOT2 / Fold change vs veh, CNOT2 / RFU, ZNF268 / Fold change vs veh, ZNF268 / Fold change vs veh, ZNF507 / RFU, DGCR2 / Fold change vs veh, DGCR2 / RFU, WDSUB1 / Fold change vs veh, WDSUB1 / Fold change vs veh, HSP90B1 /// MIR3652 / RFU, ADSS / Fold change vs veh, ADSS / RFU, GK / Fold change vs veh, GK / RFU, ZNF148 / Fold change vs veh, ZNF148 / RFU, TAF9 / Fold change vs veh, TAF9 / RFU, SLC1A5 / Fold change vs veh, SLC1A5 / RFU, SLMO2 / Fold change vs veh, SLMO2 / RFU, ABCC4 / Fold change vs veh, ABCC4 / RFU, LOC101060439 /// RAP1B / Fold change vs veh, LOC101060439 /// RAP1B / RFU, RFX7 / Fold change vs veh, RFX7 / RFU, GTPBP10 / Fold change vs veh, GTPBP10 / RFU, CNEP1R1 / Fold change vs veh, CNEP1R1 / RFU, BIVM-ERCC5 /// ERCC5 / Fold change vs veh, BIVM-ERCC5 /// ERCC5 / RFU, ILF3 / Fold change vs veh, ILF3 / RFU 11762660_at / Fold change /veh 11762660_at / RFU VCAN (11757783_s_at) / Fold change /veh VCAN (11757783_s_at) / RFU DDX43 (11728927_at) / Fold change /veh DDX43 (11728927_at) / RFU KRT8 (11758188_x_at) / Fold change /veh KRT8 (11758188_x_at) / RFU NKD1 (11759106_at) / Fold change /veh NKD1 (11759106_at) / RFU SRD5A1 (11742802_a_at) / Fold change /veh SRD5A1 (11742802_a_at) / RFU TPSAB1 /// TPSB2 (11721975_s_at) / Fold change /veh TPSAB1 /// TPSB2 (11721975_s_at) / RFU GSTM3 (11746129_a_at) / Fold change /veh GSTM3 (11746129_a_at) / RFU IL23R (11737362_x_at) / Fold change /veh IL23R (11737362_x_at) / RFU TMEM51 (11727254_a_at) / Fold change /veh TMEM51 (11727254_a_at) / RFU PIWIL2 (11732686_x_at) / Fold change /veh PIWIL2 (11732686_x_at) / RFU ORM1 (11744905_x_at) / Fold change /veh ORM1 (11744905_x_at) / RFU CCDC152 (11743942_at) / Fold change /veh CCDC152 (11743942_at) / RFU ECM1 (11717891_a_at) / Fold change /veh ECM1 (11717891_a_at) / RFU IL23R (11748794_a_at) / Fold change /veh IL23R (11748794_a_at) / RFU TNFAIP8L3 (11732012_x_at) / Fold change /veh TNFAIP8L3 (11732012_x_at) / RFU MBOAT4 (11741988_at) / Fold change /veh MBOAT4 (11741988_at) / RFU 11764193_at / Fold change /veh 11764193_at / RFU TMEM53 (11763286_at) / Fold change /veh TMEM53 (11763286_at) / RFU MAGEB2 (11727129_at) / Fold change /veh MAGEB2 (11727129_at) / RFU TMEM200A (11744735_a_at) / Fold change /veh TMEM200A (11744735_a_at) / RFU CCDC152 (11751479_a_at) / Fold change /veh CCDC152 (11751479_a_at) / RFU FAM211A (11726209_a_at) / Fold change /veh FAM211A (11726209_a_at) / RFU RGS16 (11746705_a_at) / Fold change /veh RGS16 (11746705_a_at) / RFU VCAN (11755009_s_at) / Fold change /veh VCAN (11755009_s_at) / RFU RHOB (11743442_s_at) / Fold change /veh RHOB (11743442_s_at) / RFU RGS16 (11720943_a_at) / Fold change /veh RGS16 (11720943_a_at) / RFU RGS16 (11720944_at) / Fold change /veh RGS16 (11720944_at) / RFU, VPS4B / Fold change vs veh, VPS4B / RFU, CREB1 / Fold change vs veh, CREB1 / RFU, DNAJC13 / Fold change vs veh, DNAJC13 / RFU, GNAQ / Fold change vs veh, GNAQ / RFU, CDK5R1 / Fold change vs veh, CDK5R1 / RFU, ZRANB3 / Fold change vs veh, ZRANB3 / RFU, CUL4A / Fold change vs veh, CUL4A / RFU, CCNY / Fold change vs veh, CCNY / RFU, UFL1 / Fold change vs veh, UFL1 / RFU, COG3 / Fold change vs veh, COG3 / RFU, DIAPH2 / Fold change vs veh, DIAPH2 / RFU, SKA2 / Fold change vs veh, SKA2 / RFU, AFF3 / Fold change vs veh, AFF3 / RFU, LMF1 / Fold change vs veh, LMF1 / RFU, IPO11 / Fold change vs veh, IPO11 / RFU, DFFB / Fold change vs veh, DFFB / RFU, FOXP1 / Fold change vs veh, FOXP1 / RFU, CARD8 / Fold change vs veh, CARD8 / RFU, STRN3 / Fold change vs veh, STRN3 / RFU, ADK / Fold change vs veh, ADK / RFU, RASSF2 / Fold change vs veh, RASSF2 / RFU, WIPF1 / Fold change vs veh, WIPF1 / RFU, LARP1B / Fold change vs veh, LARP1B / RFU, RASA1 / Fold change vs veh, RASA1 / RFU, RB1 / Fold change vs veh, RB1 / RFU, PPFIA1 / Fold change vs veh, PPFIA1 / RFU, MAT2A / Fold change vs veh, MAT2A / RFU, CCT5 / Fold change vs veh, CCT5 / RFU, WDR92 / Fold change vs veh, WDR92 / RFU, CUX1 / Fold change vs veh, CUX1 / RFU, TTC7A / Fold change vs veh, TTC7A / RFU, TMEM135 / Fold change vs veh, TMEM135 / RFU, DEPTOR / Fold change vs veh, DEPTOR / RFU, CPM / Fold change vs veh, CPM / RFU, DNAJB6 / Fold change vs veh, DNAJB6 / RFU, CACNA2D3 / Fold change vs veh, CACNA2D3 / RFU, DTX4 / Fold change vs veh, DTX4 / RFU, TFCP2 / Fold change vs veh, TFCP2 / RFU, GMCL1 /// GMCL1P1 / Fold change vs veh, GMCL1 /// GMCL1P1 / RFU, AEBP2 / Fold change vs veh, AEBP2 / RFU, SNHG1 /// SNORD22 /// SNORD25 /// SNORD26 /// SNORD27 /// SNORD28 /// SNORD29 /// SNORD31 / Fold change vs veh, SNHG1 /// SNORD22 /// SNORD25 /// SNORD26 /// SNORD27 /// SNORD28 /// SNORD29 /// SNORD31 / Fold change (Aza/veh), C12orf56 (ProbeSet 11735607_a_at) / Fold change (ACY-1035/veh), C12orf56 (ProbeSet 11735607_a_at) / Fold change (Aza/veh), FGFR1OP (ProbeSet 11751329_s_at) / Fold change (ACY-1035/veh), FGFR1OP (ProbeSet 11751329_s_at) / Fold change (Aza/veh), VPS36 (ProbeSet 11739960_a_at) / Fold change (ACY-1035/veh), VPS36 (ProbeSet 11739960_a_at) / RFU SYPL1 (11715823_x_at) / Fold change /veh SYPL1 (11715823_x_at) / RFU IGFBP7 (11715501_s_at) / Fold change /veh IGFBP7 (11715501_s_at) / RFU REEP3 (11722064_at) / Fold change /veh REEP3 (11722064_at) / RFU IGLL1 (11728026_x_at) / Fold change /veh IGLL1 (11728026_x_at): dose or concentration left out as unconfirmed
Conditions: ProbeSet 11758440_s_at; LIST B

With `Nc1ccc(-c2cccs2)cc1NC(=O)c1ccc2c(c1)cc(C1CC1)n2CCN1CCOCC1` [ACY-1035] the “RFU, RFX7” value was 47.76 RFU.
